Numbers after ± are expanded uncertainties.
Test: molar heat capacity at constant pressure
Conditions: 101.33 kPa, Crystal

molar heat capacity at constant pressure (298.15 K) [J/K/mol] | molar heat capacity at constant pressure (303.15 K) [J/K/mol] | molar heat capacity at constant pressure (308.15 K) [J/K/mol] | molar heat capacity at constant pressure (313.15 K) [J/K/mol] | molar heat capacity at constant pressure (318.15 K) [J/K/mol] | molar heat capacity at constant pressure (323.15 K) [J/K/mol] | molar heat capacity at constant pressure (328.15 K) [J/K/mol] | molar heat capacity at constant pressure (333.15 K) [J/K/mol] | molar heat capacity at constant pressure (338.15 K) [J/K/mol] | molar heat capacity at constant pressure (343.15 K) [J/K/mol] | SMILES
139.4 ± 4.3 | 141 ± 4.4 | 141.2 ± 4.4 | 140.8 ± 4.4 | 141.3 ± 4.4 | 144.7 ± 4.5 | 144.9 ± 4.5 | 145.1 ± 4.5 | 146 ± 4.5 | 147.9 ± 4.6 | O=c1cc(Cl)[nH]c(=O)[nH]1 [6-chlorouracil]
241.1 ± 8.5 | 250.1 ± 8.7 | 256.5 ± 8.8 | 261 ± 8.9 | 264.3 ± 9 | 267.4 ± 9.1 | 270.7 ± 9.1 | 275.2 ± 9.3 | 281.7 ± 9.4 | 291.1 ± 9.6 | CCc1cn(C)c(=O)n(C)c1=O [2,4(1H,3H)-pyrimidinedione, 5-ethyl-1,3-dimethyl-]
314.5 ± 9.7 | 321.6 ± 10 | 329 ± 10 | 333.6 ± 10 | 341.1 ± 11 | 347.9 ± 11 | 353.3 ± 11 | 358.4 ± 11 | 363.2 ± 11 | 367.3 ± 11 | Cn1c2c(c(=O)n(C)c1=O)CCCCC2
252.9 ± 7.8 | 258.1 ± 8 | 261.8 ± 8.1 | – | – | – | – | – | – | – | Cn1c2c(c(=O)n(C)c1=O)CCC2 [1,3-dimethyl-5,6-trimethyleneuracil]
157 ± 5 | 168.8 ± 5.3 | 181.2 ± 5.7 | 193 ± 6 | 206.1 ± 6.4 | 214.3 ± 6.6 | 226.1 ± 7 | 239.2 ± 7.4 | 249 ± 7.7 | 260.2 ± 8.1 | Cn1c(=O)cc[nH]c1=O [uracil, 3-methyl-]
302.7 ± 9.4 | 302.7 ± 9.4 | 302.8 ± 9.4 | 303 ± 9.4 | 306.2 ± 9.5 | 308.4 ± 9.6 | – | – | – | – | CCCc1cn(C)c(=O)n(C)c1=O [2,4(1H,3H)-pyrimidinedione, 1,3-dimethyl-5-propyl-]
162.5 ± 5 | 167.2 ± 5.2 | 170.2 ± 5.3 | 172.2 ± 5.3 | 176.9 ± 5.5 | 181.4 ± 5.6 | 183 ± 5.7 | 187.3 ± 5.8 | 190.4 ± 5.9 | 193 ± 6 | Cc1cc(O)nc(O)n1 [2,4-dihydroxy-6-methylpyrimidine]
182.2 ± 5.6 | 183.9 ± 5.7 | 188.1 ± 5.8 | 190.3 ± 5.9 | 192.2 ± 6 | 195.9 ± 6.1 | 198.2 ± 6.1 | 199.4 ± 6.2 | 204.4 ± 6.3 | 206.6 ± 6.4 | O=c1[nH]cc(C(F)(F)F)c(=O)[nH]1 [5-(trifluoromethyl)uracil]
163 ± 5.3 | 168.2 ± 5.4 | 173.7 ± 5.6 | 178.7 ± 5.7 | 184.3 ± 5.8 | 189.9 ± 6 | 195.2 ± 6.1 | 200 ± 6.2 | 203.5 ± 6.3 | 205.9 ± 6.4 | Cc1c[nH]c(=O)[nH]c1=O [thymine]
296.4 ± 9.2 | 297.9 ± 9.2 | 299.4 ± 9.3 | 300.9 ± 9.3 | 302.1 ± 9.4 | 305.3 ± 9.5 | – | – | – | – | CCCCc1cc(=O)n(C)c(=O)n1C [2,4(1H,3H)-pyrimidinedione, 6-butyl-1,3-dimethyl-]
191.1 ± 5.9 | 198.3 ± 6.1 | 203.2 ± 6.3 | 208 ± 6.4 | 212 ± 6.6 | 215.6 ± 6.7 | 219.1 ± 6.8 | 223.3 ± 6.9 | 229.3 ± 7.1 | 234.1 ± 7.3 | Cc1nc(O)nc(O)c1C [2,4-dihydroxy-5,6-dimethylpyrimidine]

Reference: the NIST ThermoML archive (doi:10.1021/je060257y)
